Test results from publication PMC10421868, “The acquisition order of leukemic drug resistance mutations is directed by the selective fitness associated with each resistance mechanism” (Scientific Reports, 2023).
Each block holds one compound with its values, some of them ahead of it.

Experiments:
[1] = tested on: Chronic Myeloid Leukemia patients; conditions: CML patients; cited from earlier work
K562 and K562 DasR cells = experiment: Intracellular uptake and retention (IUR) assay; type: in vitro ADME; conditions: 2 μM C14-dasatinib, 2 h, 37 °C
Method: To determine the quantity of intracellular dasatinib in leukemic cells, and the dasatinib transport functionality of ABCG2, the intracellular uptake and retention (IUR) assay was performed as previously described. K562 and K562 DasR cells were washed and incubated with 0 or 2 μM C^14-dasatinib kindly provided by Bristol Myers Squibb (New York, NY), in the presence or absence of 0.5 μM Ko143. This was performed using 2 × 10^5 cells in 2 mL of RPMI-1640 + 10% FCS, for 2 h at 37 °C. Following incubation, cells were pelleted by centrifugation for 5 min at 6800 rpm then 30 s at 13,000 rpm. Radioactivity of C^14-dasatinib was determined independently in the supernatant and cell pellet using a Tri-Carb 2810R Liquid Scintillation Counter (Perkin Elmer, Inc., Waltham, MA). The IUR was reported as ng of dasatinib incorporated per 200,000 cells. Results are expressed as paired –/ + Ko143 samples.

[2] = biological target: BCR::ABL1 kinase activity (Homo sapiens, UniProt P00519+P11274)
Chain of BCR::ABL1 kinase activity (P11274+P00519 fused): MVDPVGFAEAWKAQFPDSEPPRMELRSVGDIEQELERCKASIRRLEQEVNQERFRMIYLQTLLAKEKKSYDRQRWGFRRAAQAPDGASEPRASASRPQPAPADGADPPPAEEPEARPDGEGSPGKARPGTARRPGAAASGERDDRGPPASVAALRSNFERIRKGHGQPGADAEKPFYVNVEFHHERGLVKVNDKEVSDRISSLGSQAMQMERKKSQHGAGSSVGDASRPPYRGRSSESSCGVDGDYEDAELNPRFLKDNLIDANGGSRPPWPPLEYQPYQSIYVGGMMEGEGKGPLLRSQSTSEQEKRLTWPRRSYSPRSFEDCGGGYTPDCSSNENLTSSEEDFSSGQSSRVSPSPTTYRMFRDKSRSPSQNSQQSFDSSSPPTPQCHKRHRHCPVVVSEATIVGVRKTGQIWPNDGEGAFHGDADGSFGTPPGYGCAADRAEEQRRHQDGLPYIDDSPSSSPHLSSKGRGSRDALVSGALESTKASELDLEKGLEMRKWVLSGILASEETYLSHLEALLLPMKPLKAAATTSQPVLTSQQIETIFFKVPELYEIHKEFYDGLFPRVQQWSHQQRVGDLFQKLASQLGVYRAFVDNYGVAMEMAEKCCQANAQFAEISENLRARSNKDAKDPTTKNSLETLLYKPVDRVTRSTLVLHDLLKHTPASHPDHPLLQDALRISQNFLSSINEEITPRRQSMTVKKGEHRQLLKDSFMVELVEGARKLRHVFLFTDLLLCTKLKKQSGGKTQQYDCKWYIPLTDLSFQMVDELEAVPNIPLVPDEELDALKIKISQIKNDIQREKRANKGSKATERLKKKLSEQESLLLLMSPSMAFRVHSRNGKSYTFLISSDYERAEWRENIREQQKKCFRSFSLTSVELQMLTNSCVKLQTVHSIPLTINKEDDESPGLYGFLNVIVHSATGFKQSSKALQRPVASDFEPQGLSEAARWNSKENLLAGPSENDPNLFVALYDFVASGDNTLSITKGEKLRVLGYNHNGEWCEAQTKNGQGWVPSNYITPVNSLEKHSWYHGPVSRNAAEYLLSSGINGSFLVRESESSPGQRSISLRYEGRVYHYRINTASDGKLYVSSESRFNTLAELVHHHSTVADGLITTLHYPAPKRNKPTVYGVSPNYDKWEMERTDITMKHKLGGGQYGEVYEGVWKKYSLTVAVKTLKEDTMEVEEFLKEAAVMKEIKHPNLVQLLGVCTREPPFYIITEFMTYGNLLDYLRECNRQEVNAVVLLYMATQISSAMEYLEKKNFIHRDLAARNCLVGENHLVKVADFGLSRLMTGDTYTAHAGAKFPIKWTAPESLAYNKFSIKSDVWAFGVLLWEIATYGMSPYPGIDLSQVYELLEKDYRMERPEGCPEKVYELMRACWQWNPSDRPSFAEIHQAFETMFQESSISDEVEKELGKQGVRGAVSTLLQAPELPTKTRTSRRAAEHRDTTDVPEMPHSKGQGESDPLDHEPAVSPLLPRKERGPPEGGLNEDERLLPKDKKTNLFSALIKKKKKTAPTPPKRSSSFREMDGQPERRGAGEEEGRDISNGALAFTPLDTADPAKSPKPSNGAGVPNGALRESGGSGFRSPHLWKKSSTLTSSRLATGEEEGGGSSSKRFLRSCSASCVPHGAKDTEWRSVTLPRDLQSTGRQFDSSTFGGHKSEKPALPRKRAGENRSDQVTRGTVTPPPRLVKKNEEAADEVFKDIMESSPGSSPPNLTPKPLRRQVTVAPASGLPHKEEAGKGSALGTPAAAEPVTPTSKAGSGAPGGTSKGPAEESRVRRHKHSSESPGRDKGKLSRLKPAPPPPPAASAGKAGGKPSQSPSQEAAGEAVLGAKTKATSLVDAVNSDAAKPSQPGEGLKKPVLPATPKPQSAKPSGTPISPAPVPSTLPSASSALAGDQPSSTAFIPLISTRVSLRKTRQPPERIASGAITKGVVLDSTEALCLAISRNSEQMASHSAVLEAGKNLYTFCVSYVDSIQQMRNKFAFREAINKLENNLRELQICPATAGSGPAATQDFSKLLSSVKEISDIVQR
Method: Western blotting for phosphorylated CT10 regulator of kinase-like (p-CrkL) was performed as previously described.

SMILES: COc1cc(Nc2c(C#N)cnc3cc(OCCCN4CCN(C)CC4)c(OC)cc23)c(Cl)cc1Cl [bosutinib]
Suboptimal response, share of treated patients [1]: < 10%

SMILES: Cc1ccc(NC(=O)c2ccc(CN3CCN(C)CC3)cc2)cc1Nc1nccc(-c2cccnc2)n1 [imatinib]
10 year survival rate [1]: over 83% | Suboptimal response, share of treated patients [1]: 10–15%

Intracellular dasatinib (IUR) (K562 and K562 DasR cells; K562 15 nM DasR cells, with 0.5 μM Ko143): 19.39 ng/200,000 cells | Dasatinib uptake (IUR) (K562 and K562 DasR cells; K562 15 nM DasR cells, without Ko143): 12.15 ng/200,000 cells | Dasatinib uptake (IUR) (K562 and K562 DasR cells; K562 control, with 0.5 μM Ko143): 22.07 ng/200,000 cells | Dasatinib uptake (IUR) (K562 and K562 DasR cells; K562 control, without Ko143): 24.56 ng/200,000 cells
SMILES: Cc1nc(Nc2ncc(C(=O)Nc3c(C)cccc3Cl)s2)cc(N2CCN(CCO)CC2)n1 [dasatinib]
Suboptimal response, share of treated patients [1]: < 10%

SMILES: Cc1cn(-c2cc(NC(=O)c3ccc(C)c(Nc4nccc(-c5cccnc5)n4)c3)cc(C(F)(F)F)c2)cn1 [nilotinib]
Suboptimal response, share of treated patients [1]: < 10%

SMILES: COc1ccc2c3c([nH]c2c1)[C@H](CC(C)C)N1C(=O)[C@H](CCC(=O)OC(C)(C)C)NC(=O)[C@@H]1C3 [Ko143]
Effect of addition of Ko143 on dasatinib IC50 ([2]; K562 25, 50 and 200 nM DasR lines): no effect | Effect of Ko143 on ponatinib IC50 ([2]; K562 later stage DasR intermediates with lower ABCG2 expression, and DMSO control line): no significant change
